Patent US9604989B2, “Imidazopyridazines as Akt kinase inhibitors” (Bayer Intellectual Property GmbH, priority 2011, dated 2017)
Where a name gives a salt, the structure may show the parent alone.

What was measured:
p-4E-BP1 at T70 = assay: Cellular p-4E-BP1-T70 assay in KPL-4 cells; assay type: cell-based; settings: Homo sapiens, KPL4; KPL-4 breast tumour cell line, compound treatment 2 hours; read-out: P4EBP1-T70 median IC50
Experimental: (§1) The molecular mechanism of action was investigated in a set of experiments to assess the inhibition of the PI3K-AKT-mTOR pathway in responsive cell lines such as KPL-4 breast tumour cell line (PIK3CA^H1047R, HER2^O/E and hormone independent). The phospho-substrates of PI3K-AKT-mTOR axis were used as the read-outs to reflect pathway inhibition. Cells were seeded at 60-80% confluency per well in 96-well cell culture plates. After overnight incubation at 37° C. 5% CO2, cells were treated with compounds and vehicle at 37° C. for 2 hours. […] All measurements where at least done in duplicates and confirmed by independent repetition.

phospho-AKT at S473 = assay: Cellular p-AKT1/2/3-S473 assay in KPL-4 cells; assay type: cell-based; settings: Homo sapiens, KPL4; KPL-4 breast tumour cell line, compound treatment 2 hours; read-out: pAKT-S473 median IC50
Experimental: as §1
Alternatively pAKT-S473 was measured using the “Akt Duplex” of the MULTI-SPOT® Assay System (Fa. Meso Scale Discovery, Cat#N41100B-1) following manufacturers instructions. Each assay used 20 μg of protein extract and measured total AKT and p-AKT content simultaneously in one well. All measurements where at least done in duplicates and confirmed by independent repetition. Values for P-AKT are expressed as percentage of P-AKT level compared to total-AKT content of the extracts.

[1] = system: MCF-7 breast tumour cell line; assay: Tumor cell proliferation assay (CellTiter-Glo), MCF-7; assay type: cell-based; settings: Homo sapiens, MCF7, 72 h drug exposure, read-out: MCF-7 median IC50
Experimental: (§2) Biological Assay 4.0: Tumor Cell Proliferation Assays
(§3) Compounds were tested in a cell-based assay that measures the capacity of the compounds to inhibit tumour cell proliferation following a 72 h drug exposure. Cell viability is determined using CellTiter-Glow® (CTG, Promega, cat#G7571/2/3). The CellTiter-Glo® Luminescent Cell Viability Assay is a homogeneous method to determine the number of viable cells in culture.
(§4) Detection is based on using the luciferase reaction to measure the amount of ATP from viable cells. The amount of ATP in cells correlates with cell viability. Within minutes after a loss of membrane integrity, cells lose the ability to synthesize ATP, and endogenous ATPases destroy any remaining ATP; thus the levels of ATP fall precipitously.
(§5) For each cell line assayed, cells were plated onto a separate plate for determination of fluorescence at t=0 hour and t=72 hour time points. Following overnight incubation at 37° C., chemiluminescence values for the t=0 samples were determined after adding 10 μl medium and 100 μl CTG solution according to manufacture protocol. Plates for the t=72 hour time points were treated with compounds diluted into growth medium at ten times final concentration added in 10 μL to the cell culture plate. Cells were then incubated for 72 hours at 37° C. Chemiluminescence values for the t=72 hour samples were determined. […] Experiments were controlled using a reference compound as standard.

[2] = system: KPL-4 breast cancer cell line; assay: Tumor cell proliferation assay (CellTiter-Glo), KPL-4; assay type: cell-based; settings: Homo sapiens, KPL4, 72 h drug exposure, read-out: KLP-4 median IC50
Experimental: as §2, §3, §4, §5

[3] = target: His-tagged human recombinant kinase full-length Akt1 (Homo sapiens (Human), UniProt P31749); assay: Akt1 kinase assay (Akt1 TR-FRET assay); assay type: biochemical; settings: 10 μM ATP, 60 min at 22° C., read-out: Akt1 median IC50
Sequence of His-tagged human recombinant kinase full-length Akt1 (P31749 whole entry): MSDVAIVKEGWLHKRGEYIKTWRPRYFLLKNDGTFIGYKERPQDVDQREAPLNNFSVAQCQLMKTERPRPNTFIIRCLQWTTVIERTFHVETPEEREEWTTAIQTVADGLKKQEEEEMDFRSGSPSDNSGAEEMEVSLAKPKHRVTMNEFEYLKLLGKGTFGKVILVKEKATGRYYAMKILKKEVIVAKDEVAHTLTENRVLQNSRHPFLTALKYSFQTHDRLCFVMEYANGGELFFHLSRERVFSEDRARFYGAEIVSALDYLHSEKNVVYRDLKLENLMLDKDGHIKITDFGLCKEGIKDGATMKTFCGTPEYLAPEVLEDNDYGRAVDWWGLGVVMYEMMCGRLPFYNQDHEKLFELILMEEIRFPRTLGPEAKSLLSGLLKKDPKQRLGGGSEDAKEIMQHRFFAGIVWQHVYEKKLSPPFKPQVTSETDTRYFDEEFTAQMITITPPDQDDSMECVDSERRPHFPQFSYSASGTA
Text: Biological Assay 1.0: Akt1 Kinase Assay
Akt1 inhibitory activity of compounds of the present invention was quantified employing the Akt1 TR-FRET assay as described in the following paragraphs.
His-tagged human recombinant kinase full-length Akt1 expressed in insect cells was purchased form Invitrogen (part number PV 3599). As substrate for the kinase reaction the biotinylated peptide biotin-Ahx-[sequence] (C-terminus in amide form) was used which can be purchased e.g. from the company Biosynthan GmbH (Berlin-Buch, Germany).
For the assay 50 nl of a 100 fold concentrated solution of the test compound in DMSO was pipetted into a black low volume 384 well microtiter plate (Greiner Bio-One, Frickenhausen, Germany), 2 μl of a solution of Akt1 in assay buffer [50 mM TRIS/HCl pH 7.5, 5 mM MgCl2, 1 mM dithiothreitol, 0.02% (v/v) Triton X-100 (Sigma)] were added and the mixture was incubated for 15 min at 22° C. to allow pre-binding of the test compounds to the enzyme before the start of the kinase reaction. Then the kinase reaction was started by the addition of 3 μl of a solution of adenosine-tri-phosphate (ATP, 16.7 μM=>final conc. in the 5 μl assay volume is 10 μM) and substrate (1.67 μM=>final conc. in the 5 μl assay volume is 1 μM) in assay buffer and the resulting mixture was incubated for a reaction time of 60 min at 22° C. The concentration of Akt1 in the assay was adjusted depending of the activity of the enzyme lot and was chosen appropriate to have the assay in the linear range, typical enzyme concentrations were in the range of about 0.05 ng/μl (final conc. in the 5 μl assay volume). The reaction was stopped by the addition of 5 μl of a solution of HTRF detection reagents (200 nM streptavidine-XL665 [Cisbio] and 1.5 nM anti-phosho-Serine antibody [Millipore, cat. #35-001] and 0.75 nM LANCE Eu-W 1024 labeled anti-mouse IgG antibody [Perkin Elmer]) in an aqueous EDTA-solution (100 mM EDTA, 0.1% (w/v) bovine serum albumin in 50 mM HEPES/NaOH pH 7.5). The resulting mixture was incubated 1 h at 22° C. to allow the binding of the biotinylated phosphorylated peptide to the streptavidine-XL665 and the antibodies. Subsequently the amount of phosphorylated substrate was evaluated by measurement of the resonance energy transfer from the anti-mouse-IgG-Eu-Chelate to the streptavidine-XL665. Therefore, the fluorescence emissions at 620 nm and 665 nm after excitation at 350 nm was measured in a HTRF reader, e.g. a Rubystar (BMG Labtechnologies, Offenburg, Germany) or a Viewlux (Perkin-Elmer). The ratio of the emissions at 665 nm and at 622 nm was taken as the measure for the amount of phosphorylated substrate.

[4] = target: His-tagged human recombinant kinase full-length Akt2 (Homo sapiens (Human), UniProt P31751); assay: Akt2 kinase assay (Akt2 TR-FRET assay); assay type: biochemical; settings: 10 μM ATP, 60 min at 22° C., read-out: Akt2 median IC50
Sequence of His-tagged human recombinant kinase full-length Akt2 (P31751 whole entry): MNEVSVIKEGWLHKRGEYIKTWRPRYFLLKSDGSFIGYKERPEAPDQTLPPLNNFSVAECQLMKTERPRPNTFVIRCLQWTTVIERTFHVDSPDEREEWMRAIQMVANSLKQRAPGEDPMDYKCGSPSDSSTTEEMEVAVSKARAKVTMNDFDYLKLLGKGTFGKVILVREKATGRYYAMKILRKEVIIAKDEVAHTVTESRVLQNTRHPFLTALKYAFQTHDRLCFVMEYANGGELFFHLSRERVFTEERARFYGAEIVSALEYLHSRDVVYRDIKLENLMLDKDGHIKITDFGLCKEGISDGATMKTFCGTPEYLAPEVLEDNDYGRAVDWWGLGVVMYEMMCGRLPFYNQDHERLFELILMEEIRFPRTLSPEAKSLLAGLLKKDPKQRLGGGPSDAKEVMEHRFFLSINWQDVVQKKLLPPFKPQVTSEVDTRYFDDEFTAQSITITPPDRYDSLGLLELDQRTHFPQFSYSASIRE
Text: Akt2 inhibitory activity of compounds of the present invention was quantified employing the Akt2 TR-FRET assay as described in the following paragraphs.
His-tagged human recombinant kinase full-length Akt2 expressed in insect cells and activated by PDK1 was purchased form Invitrogen (part number PV 3975). As substrate for the kinase reaction the biotinylated peptide biotin-Ahx-[sequence] (C-terminus in amide form) was used which can be purchased e.g. from the company Biosynthan GmbH (Berlin-Buch, Germany). For the assay 50 nl of a 100 fold concentrated solution of the test compound in DMSO was pipetted into a black low volume 384 well microtiter plate (Greiner Bio-One, Frickenhausen, Germany), 2 μl of a solution of Akt2 in assay buffer [50 mM TRIS/HCl pH 7.5, 5 mM MgCl2, 1 mM dithiothreitol, 0.02% (v/v) Triton X-100 (Sigma)] were added and the mixture was incubated for 15 min at 22° C. to allow pre-binding of the test compounds to the enzyme before the start of the kinase reaction. Then the kinase reaction was started by the addition of 3 μl of a solution of adenosine-tri-phosphate (ATP, 16.7 μM=>final conc. in the 5 μl assay volume is 10 μM) and substrate (1.67 μM=>final conc. in the 5 μl assay volume is 1 μM) in assay buffer and the resulting mixture was incubated for a reaction time of 60 min at 22° C. The concentration of Akt2 in the assay was adjusted depending of the activity of the enzyme lot and was chosen appropriate to have the assay in the linear range, typical enzyme concentrations were in the range of about 0.2 ng/μl (final conc. in the 5 μl assay volume). The reaction was stopped by the addition of 5 μl of a solution of HTRF detection reagents (200 nM streptavidine-XL665 [Cisbio] and 1.5 nM anti-phosho-Serine antibody [Millipore, cat. #35-001] and 0.75 nM LANCE Eu-W 1024 labeled anti-mouse IgG antibody [Perkin Elmer]) in an aqueous EDTA-solution (100 mM EDTA, 0.1% (w/v) bovine serum albumin in 50 mM HEPES/NaOH pH 7.5). The resulting mixture was incubated 1 h at 22° C. to allow the binding of the biotinylated phosphorylated peptide to the streptavidine-XL665 and the antibodies. Subsequently the amount of phosphorylated substrate was evaluated by measurement of the resonance energy transfer from the anti-mouse-IgG-Eu-Chelate to the streptavidine-XL665. Therefore, the fluorescence emissions at 620 nm and 665 nm after excitation at 350 nm was measured in a TR-FRET reader, e.g. a Rubystar (BMG Labtechnologies, Offenburg, Germany) or a Viewlux (Perkin-Elmer). The ratio of the emissions at 665 nm and at 622 nm was taken as the measure for the amount of phosphorylated substrate.

In the case of `NC1(c2ccc(-c3nc4ccc(C(F)(F)F)nn4c3-c3ccccc3)cc2)CCC1` [Example 3, 1-{4-[3-Phenyl-6-(trifluoromethyl)imidazo[1,2-b]pyridazin-2-yl]phenyl}-cyclobutanamine], the IC50 (p-4E-BP1 at T70) is reported as 4500 nM, the IC50 (phospho-AKT at S473) is reported as 360 nM and the IC50 [1] is reported as 1800 nM. For the same compound, the IC50 [2] was 1700 nM.
Compound `COC(=O)c1cc(OC)c2nc(-c3ccc(C4(N)CCC4)cc3)c(-c3ccccc3)n2n1` [Example 12, Methyl 2-[4-(1-aminocyclobutyl)phenyl]-8-methoxy-3-phenylimidazo[1,2-b]pyridazine-6-carboxylate] has an IC50 [3] of 21 nM, an IC50 (p-4E-BP1 at T70) of 260 nM and an IC50 (phospho-AKT at S473) of 52 nM. It also gave an IC50 [1] of 1800 nM and an IC50 [2] of 2000 nM.
`CCc1cc(OC)c2nc(-c3ccc(C4(N)CCC4)cc3)c(-c3ccccc3)n2n1` [Example 13, 1-[4-(6-Ethyl-8-methoxy-3-phenylimidazo[1,2-b]pyridazin-2-yl)phenyl]cyclobutanamine] gave an IC50 [4] of 42 nM, an IC50 (p-4E-BP1 at T70) of 660 nM and an IC50 [1] of 1100 nM. It also gave an IC50 [2] of 1500 nM.
For `COc1cc(-c2cn[nH]c2)c2nc(-c3ccc(C4(N)CCC4)cc3)c(-c3ccccc3)n2n1` [Example 15, 1-{4-[6-Methoxy-3-phenyl-8-(1H-pyrazol-4-yl)imidazo[1,2-b]pyridazin-2-yl]phenyl} cyclobutanamine HCl salt], the IC50 [3] was 4.4 nM, the IC50 (p-4E-BP1 at T70) was 1700 nM and the IC50 (phospho-AKT at S473) was 590 nM. It also gave an IC50 [1] of 1800 nM and an IC50 [2] of 1800 nM.
Work on `CCOc1cc(C(=O)NC)nn2c(-c3ccccc3)c(-c3ccc(C4(N)CCC4)cc3)nc12` [Example 22, 2-[4-(1-Aminocyclobutyl)phenyl]-8-ethoxy-N-methyl-3-phenylimidazo[1,2-b]pyridazine-6-carboxamide] yielded an IC50 [3] of 8 nM, an IC50 (p-4E-BP1 at T70) of 23 nM and an IC50 (phospho-AKT at S473) of 0.3 nM. It also gave an IC50 [1] of 240 nM and an IC50 [2] of 190 nM.
`NC1(c2ccc(-c3nc4c(-c5ncc[nH]5)cc(Cl)nn4c3-c3ccccc3)cc2)CCC1` [Example 24, 1-{4-[6-Chloro-8-(1H-imidazol-2-yl)-3-phenyl-imidazo[1,2-b]pyridazin-2-yl]phenyl} cyclobutanamine] was tested, and the IC50 [3] was 35 nM, the IC50 (p-4E-BP1 at T70) was 500 nM and the IC50 (phospho-AKT at S473) was 200 nM. It also gave an IC50 [1] of 1800 nM and an IC50 [2] of 1700 nM.
`CNC(=O)c1cc(OC)c2nc(-c3ccc(C4(N)CCC4)cc3)c(-c3ccccc3)n2n1` [Example 26, 2-[4-(1-Aminocyclobutyl)phenyl]-8-methoxy-N-methyl-3-phenylimidazo[1,2-b]pyridazine-6-carboxamide] gave an IC50 [4] of 10 nM, an IC50 (p-4E-BP1 at T70) of 90 nM and an IC50 (phospho-AKT at S473) of 0.9 nM. For the same compound, the IC50 [1] was 1800 nM and the IC50 [2] was 1800 nM.
In the case of `COCCOc1cc(C(N)=O)nn2c(-c3ccccc3)c(-c3ccc(C4(N)CCC4)cc3)nc12` [Example 28, 2-[4-(1-Aminocyclobutyl)phenyl]-8-(2-methoxy-ethoxy)-3-phenylimidazo[1,2-b]pyridazine-6-carboxamide], the IC50 (p-4E-BP1 at T70) is reported as 6.2 nM, the IC50 (phospho-AKT at S473) is reported as 1 nM and the IC50 [1] is reported as 1800 nM. The IC50 [2] was 1900 nM.
In the case of `NC1(c2ccc(-c3nc4c(O)ccnn4c3-c3ccccc3)cc2)CCC1` [Example 32, 2-[4-(1-Aminocyclobutyl)phenyl]-3-phenylimidazo[1,2-b]pyridazin-8-ol], the IC50 (p-4E-BP1 at T70) is reported as 2200 nM and the IC50 (phospho-AKT at S473) is reported as 160 nM.
`NC1(c2ccc(-c3nc4ccc(-c5ccc(F)cc5)nn4c3-c3ccccc3)cc2)CCC1` [Example 33, 1-{4-[6-(4-Fluorophenyl)-3-phenylimidazo[1,2-b]pyridazin-2-yl]phenyl}cyclobutanamine] was tested, and the IC50 [3] was 690 nM and the IC50 (phospho-AKT at S473) was 2900 nM.
`CSc1ccc2nc(-c3ccc(C4(N)CCC4)cc3)c(-c3ccccc3)n2n1` [Example 36, 1-{4-[6-(Methylsulfanyl)-3-phenylimidazo[1,2-b]pyridazin-2-yl]phenyl}cyclobutanamine] showed an IC50 [3] of 17 nM, an IC50 (p-4E-BP1 at T70) of 1600 nM and an IC50 (phospho-AKT at S473) of 26 nM. For the same compound, the IC50 [1] was 1700 nM and the IC50 [2] was 1800 nM.
Work on `CS(=O)(=O)c1ccc2nc(-c3ccc(C4(N)CCC4)cc3)c(-c3ccccc3)n2n1` [Example 38] yielded an IC50 [3] of 370 nM, an IC50 (p-4E-BP1 at T70) of 530 nM and an IC50 (phospho-AKT at S473) of 20 nM. It also gave an IC50 [1] of 510 nM and an IC50 [2] of 740 nM.
`NC1(c2ccc(-c3nc4ccc(NC(=O)C(F)(F)F)nn4c3-c3ccccc3)cc2)CCC1` [Example 40, N-{2-[4-(1-Aminocyclobutyl)phenyl]-3-phenylimidazo[1,2-b]pyridazin-6-yl}-2,2,2-trifluoroacetamide] was tested, and the IC50 (p-4E-BP1 at T70) was 6100 nM, the IC50 (phospho-AKT at S473) was 2000 nM and the IC50 [1] was 8400 nM. It also gave an IC50 [2] of over 10000 nM.
`CC(=O)c1ccc2nc(-c3ccc(C4(N)CCC4)cc3)c(-c3ccccc3)n2n1` [Example 43, 1-{2-[4-(1-Aminocyclobutyl)phenyl]-3-phenylimidazo[1,2-b]pyridazin-6-yl}ethanone] was tested, and the IC50 [3] was 36 nM, the IC50 (p-4E-BP1 at T70) was 1600 nM and the IC50 (phospho-AKT at S473) was 96 nM. The IC50 [1] was 6700 nM and the IC50 [2] was 6200 nM.
`NC1(c2ccc(-c3nc4c(-c5ccc(F)cc5)ccnn4c3-c3ccccc3)cc2)CCC1` [Example 44, 1-{4-[8-(4-Fluorophenyl)-3-phenylimidazo[1,2-b]pyridazin-2-yl]phenyl}cyclobutanamine] was tested, and the IC50 [4] was 310 nM, the IC50 (p-4E-BP1 at T70) was 380 nM and the IC50 (phospho-AKT at S473) was 800 nM. For the same compound, the IC50 [2] was 2000 nM.
Compound `CCCc1ccnn2c(-c3ccccc3)c(-c3ccc(C4(N)CCC4)cc3)nc12` [Example 47, 1-[4-(3-Phenyl-8-propylimidazo[1,2-b]pyridazin-2-yl)phenyl]cyclobutanamine] has an IC50 [3] of 220 nM, an IC50 (p-4E-BP1 at T70) of 96 nM and an IC50 (phospho-AKT at S473) of 140 nM. The IC50 [1] was 1100 nM and the IC50 [2] was 1700 nM.
`CCOc1nn2c(-c3ccccc3)c(-c3ccc(C4(N)CCC4)cc3)nc2c(C)c1C` [Example 55, 1-[4-(6-Ethoxy-7,8-dimethyl-3-phenylimidazo[1,2-b]pyridazin-2-yl)phenyl]-cyclobutanamine] showed an IC50 (p-4E-BP1 at T70) of 1800 nM, an IC50 (phospho-AKT at S473) of 680 nM and an IC50 [1] of 1900 nM. The IC50 [2] was 2000 nM.
`NC(=O)c1ccnn2c(-c3ccccc3)c(-c3ccc(C4(N)CCC4)cc3)nc12` [Example 59] was tested, and the IC50 (p-4E-BP1 at T70) was 100 nM and the IC50 (phospho-AKT at S473) was 11 nM.
`NC(=O)c1cc(-c2cc[nH]n2)c2nc(-c3ccc(C4(N)CCC4)cc3)c(-c3ccccc3)n2n1` [Example 60, 2-[4-(1-Aminocyclobutyl)phenyl]-3-phenyl-8-(1H-pyrazol-3-yl)imidazo[1,2-b]pyridazine-6-carboxamide] showed an IC50 [3] of 7.2 nM, an IC50 (p-4E-BP1 at T70) of 8100 nM and an IC50 (phospho-AKT at S473) of 1 nM. For the same compound, the IC50 [1] was 73 nM and the IC50 [2] was 1500 nM.
In the case of `CCNC(=O)c1ccc2nc(-c3ccc(C4(N)CCC4)cc3)c(-c3ccccc3)n2n1` [Example 66, 2-[4-(1-Aminocyclobutyl)phenyl]-N-ethyl-3-phenylimidazo[1,2-b]pyridazine-6-carboxamide], the IC50 (phospho-AKT at S473) is reported as 17 nM, the IC50 [1] is reported as 980 nM and the IC50 [2] is reported as 2500 nM.
`CN(C)C(=O)c1ccc2nc(-c3ccc(C4(N)CCC4)cc3)c(-c3ccccc3)n2n1` [Example 69, 2-[4-(1-Aminocyclobutyl)phenyl]-N,N-dimethyl-3-phenylimidazo[1,2-b]pyridazine-6-carboxamide] gave an IC50 [3] of 310 nM, an IC50 (p-4E-BP1 at T70) of 4400 nM and an IC50 (phospho-AKT at S473) of 250 nM. It also gave an IC50 [1] of 1500 nM and an IC50 [2] of 10000 nM.
Compound `COc1cc(-c2ccnn2C)c2nc(-c3ccc(C4(N)CCC4)cc3)c(-c3ccccc3)n2n1` [Example 74, 1-{4-[6-Methoxy-8-(1-methyl-1H-pyrazol-5-yl)-3-phenylimidazo[1,2-b]pyridazin-2-yl]phenyl}cyclobutanamine] has an IC50 [3] of 96 nM, an IC50 (phospho-AKT at S473) of 450 nM and an IC50 [1] of 2000 nM. It also gave an IC50 [2] of 2100 nM.
